These results are taken from patent publication US20030186967A1, “Acylresorcinol derivatives are selective vitronectin receptor inhibitors” (American Home Products Corporation, priority 1998, published 2003).

The test deals with T1, Vitronectin receptor αVβ3 (Homo sapiens, UniProt P05106+P06756).
T1 construct: expressed in transfected cells; host or cells: 512P5 cells (plasma membrane preparation)
The experiment in a line: Vitronectin Receptor αVβ3 Binding Assay. Particulars: read-out: VnR (IC50μM).

T1 sequence (P06756 31-889 limits assumed): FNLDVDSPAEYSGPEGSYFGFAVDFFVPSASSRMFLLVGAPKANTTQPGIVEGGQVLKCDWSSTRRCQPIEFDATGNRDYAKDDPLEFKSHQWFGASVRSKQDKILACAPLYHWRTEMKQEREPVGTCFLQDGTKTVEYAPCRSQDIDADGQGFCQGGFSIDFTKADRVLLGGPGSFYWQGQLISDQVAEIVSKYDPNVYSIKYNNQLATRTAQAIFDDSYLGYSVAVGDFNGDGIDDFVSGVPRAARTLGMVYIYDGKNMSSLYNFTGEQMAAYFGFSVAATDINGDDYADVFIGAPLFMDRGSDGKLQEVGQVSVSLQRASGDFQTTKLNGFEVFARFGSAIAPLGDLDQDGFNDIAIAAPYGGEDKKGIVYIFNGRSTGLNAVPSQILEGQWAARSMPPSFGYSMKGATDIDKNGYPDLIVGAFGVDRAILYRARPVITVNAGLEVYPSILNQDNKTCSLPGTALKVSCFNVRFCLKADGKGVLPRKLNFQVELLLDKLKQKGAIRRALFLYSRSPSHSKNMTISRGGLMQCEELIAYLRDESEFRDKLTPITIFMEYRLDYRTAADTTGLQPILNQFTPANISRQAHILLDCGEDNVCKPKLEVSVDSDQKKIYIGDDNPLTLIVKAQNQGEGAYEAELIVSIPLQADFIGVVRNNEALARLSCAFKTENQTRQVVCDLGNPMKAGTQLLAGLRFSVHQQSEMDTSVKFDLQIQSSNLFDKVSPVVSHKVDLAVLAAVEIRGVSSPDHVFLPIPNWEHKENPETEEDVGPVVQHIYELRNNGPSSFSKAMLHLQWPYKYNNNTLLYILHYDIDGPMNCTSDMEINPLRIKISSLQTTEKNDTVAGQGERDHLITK
T1 sequence (P06756 891-1048 partner limits assumed): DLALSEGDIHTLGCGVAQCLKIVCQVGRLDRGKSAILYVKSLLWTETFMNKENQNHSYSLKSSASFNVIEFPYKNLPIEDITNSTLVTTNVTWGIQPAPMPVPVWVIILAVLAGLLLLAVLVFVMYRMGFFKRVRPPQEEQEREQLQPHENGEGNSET
T1 sequence (P05106 27-788): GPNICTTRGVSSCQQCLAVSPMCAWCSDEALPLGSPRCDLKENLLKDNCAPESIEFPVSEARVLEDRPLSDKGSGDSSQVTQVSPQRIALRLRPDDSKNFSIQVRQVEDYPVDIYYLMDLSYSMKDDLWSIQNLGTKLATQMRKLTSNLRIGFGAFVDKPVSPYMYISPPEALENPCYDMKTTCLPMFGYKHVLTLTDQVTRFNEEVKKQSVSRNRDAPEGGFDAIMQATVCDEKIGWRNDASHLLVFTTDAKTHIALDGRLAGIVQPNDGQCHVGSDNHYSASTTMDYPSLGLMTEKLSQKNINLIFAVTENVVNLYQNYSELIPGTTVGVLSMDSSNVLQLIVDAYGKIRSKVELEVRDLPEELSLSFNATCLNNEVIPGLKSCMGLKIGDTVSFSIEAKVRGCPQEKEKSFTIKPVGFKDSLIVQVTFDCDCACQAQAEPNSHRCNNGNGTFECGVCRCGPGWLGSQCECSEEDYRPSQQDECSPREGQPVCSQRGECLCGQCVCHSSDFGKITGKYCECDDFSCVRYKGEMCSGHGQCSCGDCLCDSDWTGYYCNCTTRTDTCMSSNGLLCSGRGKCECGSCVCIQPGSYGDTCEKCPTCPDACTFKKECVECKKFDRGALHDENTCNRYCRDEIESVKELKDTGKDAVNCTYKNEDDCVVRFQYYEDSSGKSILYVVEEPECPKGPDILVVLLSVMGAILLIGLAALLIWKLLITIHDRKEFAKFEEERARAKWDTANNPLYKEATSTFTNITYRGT

With `CCOC(=O)N[C@@H](CNC(=O)c1ccc(OCCNC(=O)NCc2ccccc2)cc1O)C(=O)O` [Example 222, (2S)-3-{[4-(2-{[(benzylamino)carbonyl]amino}ethoxy)-2-hydroxybenzoyl]amino}-2-[(ethoxycarbonyl)amino]propanoic acid], the IC50 was determined as 20.8 µM.

For the molecule `CCCOC(=O)N[C@@H](CNC(=O)c1ccc(OCCNC(=O)NCc2ccccc2)cc1O)C(=O)O` [Example 223, (2S)-3-{[4-(2-{[(benzylamino)carbonyl]amino}ethoxy)-2-hydroxybenzoyl]amino}-2-[(propoxycarbonyl)amino]propanoic acid], the IC50 came to 5.5 µM. As to `CC(C)OC(=O)N[C@@H](CNC(=O)c1ccc(OCCNC(=O)NCc2ccccc2)cc1O)C(=O)O` [Example 224, (2S)-3-{[4-(2-{[(benzylamino)carbonyl]amino}ethoxy)-2-hydroxybenzoyl]amino}-2-[(isopropoxycarbonyl)amino]propanoic acid], the IC50 is 4.1 µM. To `C=CCOC(=O)N[C@@H](CNC(=O)c1ccc(OCCNC(=O)NCc2ccccc2)cc1O)C(=O)O` [Example 225, (2S)-2-{[(allyloxy)carbonyl]amino}-3-{[4-(2-{[(benzylamino)carbonyl]amino}-ethoxy)-2-hydroxybenzoyl]amino}propanoic acid] belongs 5 µM.

As to `C=CCCOC(=O)N[C@@H](CNC(=O)c1ccc(OCCNC(=O)NCc2ccccc2)cc1O)C(=O)O` [Example 226, (2S)-3-{[4-(2-{[(benzylamino)carbonyl]amino}ethoxy)-2-hydroxybenzoyl]amino}-2-{[(but-3-enyloxy)carbonyl]amino}propanoic acid], the IC50 is 5.2 µM. As to `C#CCOC(=O)N[C@@H](CNC(=O)c1ccc(OCCNC(=O)NCc2ccccc2)cc1O)C(=O)O` [Example 227, (2S)-3-{[4-(2-{[(benzylamino)carbonyl]amino}ethoxy)-2-hydroxybenzoyl]amino}-2-{[(prop-2-ynyloxy)carbonyl]amino}propanoic acid], the IC50 is 5.1 µM. For the molecule `CCCCCCOC(=O)N[C@@H](CNC(=O)c1ccc(OCCNC(=O)NCc2ccccc2)cc1O)C(=O)O` [Example 228, (2S)-3-{[4-(2-{[(benzylamino)carbonyl]amino}ethoxy)-2-hydroxybenzoyl]amino}-2-{[(hexyloxy)carbonyl]amino}propanoic acid], the IC50 was 10.2 µM. To `CCCCCCCCOC(=O)N[C@@H](CNC(=O)c1ccc(OCCNC(=O)NCc2ccccc2)cc1O)C(=O)O` [Example 229, (2S)-3-{[4-(2-{[(benzylamino)carbonyl]amino}ethoxy)-2-hydroxybenzoyl]amino}-2-{[(octyloxy)carbonyl]amino}propanoic acid] belongs 17.1 µM; to `O=C(NCCOc1ccc(C(=O)NC[C@H](NC(=O)OCC(Cl)(Cl)Cl)C(=O)O)c(O)c1)NCc1ccccc1` [Example 230, (2S)-3-{[4-(2-{[(benzylamino)carbonyl]amino}ethoxy)-2-hydroxybenzoyl]amino}-2-{[(2,2,2-trichloroethoxy)carbonyl]amino}propanoic acid], 4 µM; to `CCCCOC(=O)N[C@@H](CNC(=O)c1ccc(OCCNC(=O)NCc2ccccc2)cc1O)C(=O)O` [Example 231, (2S)-3-{[4-(2-{[(benzylamino)carbonyl]amino}ethoxy)-2-hydroxybenzoyl]amino}-2-[(butoxycarbonyl)amino]propanoic acid], 6.7 µM.

For `CC(C)COC(=O)N[C@@H](CNC(=O)c1ccc(OCCNC(=O)NCc2ccccc2)cc1O)C(=O)O` [Example 232, (2S)-3-{[4-(2-{[(benzylamino)carbonyl]amino}ethoxy)-2-hydroxybenzoyl]amino}-2-[(isobutoxycarbonyl)amino]propanoic acid], the IC50 is 3.7 µM. With `O=C(NCCOc1ccc(C(=O)NC[C@H](NC(=O)OCc2ccccc2)C(=O)O)c(O)c1)NCc1cccnc1` [Example 233], the IC50 came out at 3.3 µM. `COC(=O)N[C@@H](CNC(=O)c1ccc(OCCNC(=O)NCc2cccnc2)cc1O)C(=O)O` [Example 234, (2S)-3-({2-hydroxy-4-[2-({[(pyridin-3-ylmethyl)amino]carbonyl}-amino)ethoxy]-benzoyl}amino)-2-[(methoxycarbonyl)amino]propanoic acid]: the IC50 stood at 8.7 µM.

In the case of `CCOC(=O)N[C@@H](CNC(=O)c1ccc(OCCNC(=O)NCc2cccnc2)cc1O)C(=O)O` [Example 235, (2S)-2-[(ethoxycarbonyl)amino]-3-({2-hydroxy-4-[2-({[(pyridin-3-ylmethyl)amino]-carbonyl}amino)ethoxy]benzoyl}amino)propanoic acid], the IC50 came to 3 µM. With `CCCOC(=O)N[C@@H](CNC(=O)c1ccc(OCCNC(=O)NCc2cccnc2)cc1O)C(=O)O` [Example 236], the IC50 turned out to be 1.9 µM.

For `CC(C)OC(=O)N[C@@H](CNC(=O)c1ccc(OCCNC(=O)NCc2cccnc2)cc1O)C(=O)O` [Example 237, (2S)-3-({2-hydroxy-4-[2-({[(pyridin-3-ylmethyl)amino]carbonyl}-amino)ethoxy]-benzoyl}amino)-2-[(isopropoxycarbonyl)amino]propanoic acid], the IC50 was 2.7 µM. Consider `C=CCCOC(=O)N[C@@H](CNC(=O)c1ccc(OCCNC(=O)NCc2cccnc2)cc1O)C(=O)O` [Example 239, (2S)-2-{[(but-3-enyloxy)carbonyl]amino}-3-({2-hydroxy-4-[2-({[(pyridin-3-ylmethyl)amino]carbonyl}amino)ethoxy]benzoyl}amino)propanoic acid], for which the IC50 turned out to be 2.1 µM.

Regarding `CCCCCCOC(=O)N[C@@H](CNC(=O)c1ccc(OCCNC(=O)NCc2cccnc2)cc1O)C(=O)O` [Example 241, (2S)-2-{[(hexyloxy)carbonyl]amino}-3-({2-hydroxy-4-[2-({[(pyridin-3-ylmethyl)-amino]carbonyl}amino)ethoxy]benzoyl}amino)propanoic acid], the IC50 came to 4.1 µM. Regarding `CCCCCCCCOC(=O)N[C@@H](CNC(=O)c1ccc(OCCNC(=O)NCc2cccnc2)cc1O)C(=O)O` [Example 242, (2S)-3-({2-hydroxy-4-[2-({[(pyridin-3-ylmethyl)amino]carbonyl}-amino)ethoxy]-benzoyl}amino)-2-{[(octyloxy)carbonyl]amino}propanoic acid], the IC50 was determined as 7.9 µM. To `CC(C)(C)COC(=O)N[C@@H](CNC(=O)c1ccc(OCCNC(=O)NCc2cccnc2)cc1O)C(=O)O` [Example 243, (2S)-3-({2-hydroxy-4-[2-({[(pyridin-3-ylmethyl)amino]carbonyl}-amino)ethoxy]-benzoyl}amino)-2-{[(neopentyloxy)carbonyl]amino}propanoic acid] belongs 0.69 µM.

Regarding `O=C(NCCOc1ccc(C(=O)NC[C@H](NC(=O)OCC(Cl)(Cl)Cl)C(=O)O)c(O)c1)NCc1cccnc1` [Example 244, (2S)-3-({2-hydroxy-4-[2-({[(pyridin-3-ylmethyl)amino]carbonyl}amino)-ethoxy]benzoyl}amino)-2-{[(2,2,2-trichloroethoxy)carbonyl]amino}propanoic acid], the IC50 came out at 1.6 µM. With `CC(C)COC(=O)N[C@@H](CNC(=O)c1ccc(OCCNC(=O)NCc2cccnc2)cc1O)C(=O)O` [Example 246, (2S)-3-({2-hydroxy-4-[2-({[(pyridin-3-ylmethyl)amino]carbonyl}-amino)ethoxy]-benzoyl}amino)-2-[(isobutoxycarbonyl)amino]propanoic acid], the IC50 was determined as 1.6 µM. With `O=C(NCCOc1ccc(C(=O)NC[C@H](NC(=O)OCc2ccccc2)C(=O)O)c(O)c1)NCc1ccncc1` [Example 247, (2S)-2-{[(benzyloxy)carbonyl]amino}-3-({2-hydroxy-4-[2-({[(pyridin-4-ylmethyl)amino]carbonyl}amino)ethoxy]benzoyl}amino)propanoic acid] the figure was 5.5 µM.

Regarding `CCCCCCOC(=O)N[C@@H](CNC(=O)c1ccc(OCCNC(=O)NCc2ccncc2)cc1O)C(=O)O` [Example 255, (2S)-2-{[(hexyloxy)carbonyl]amino}-3-({2-hydroxy-4-[2-({[(pyridin-4-ylmethyl)amino]carbonyl}amino)ethoxy]benzoyl}amino)propanoic acid], the IC50 is 5.31 µM. To `CCCCCCCCOC(=O)N[C@@H](CNC(=O)c1ccc(OCCNC(=O)NCc2ccncc2)cc1O)C(=O)O` [Example 256, (2S)-3-({2-hydroxy-4-[2-({[(pyridin-4-ylmethyl)amino]carbonyl}-amino)ethoxy]-benzoyl}amino)-2-{[(octyloxy)carbonyl]amino}propanoic acid] belongs 9.08 µM; to `CC(C)(C)COC(=O)N[C@@H](CNC(=O)c1ccc(OCCNC(=O)NCc2ccncc2)cc1O)C(=O)O` [Example 257, (2S)-3-({2-hydroxy-4-[2-({[(pyridin-4-ylmethyl)amino]carbonyl}-amino)ethoxy]-benzoyl}amino)-2-{[(neopentyloxy)carbonyl]amino}propanoic acid], 1.26 µM.

For `O=C(NCCOc1ccc(C(=O)NC[C@H](NC(=O)OCC(Cl)(Cl)Cl)C(=O)O)c(O)c1)NCc1ccncc1` [Example 258, (2S)-3-({2-hydroxy-4-[2-({[(pyridin-4-ylmethyl)amino]carbonyl}amino)-ethoxy]-benzoyl}amino)-2-{[(2,2,2-trichloroethoxy)carbonyl]amino}propanoic acid], the IC50 is 4.31 µM.

For the molecule `Cc1ccc(CNC(=O)NCCOc2ccc(C(=O)NC[C@H](NC(=O)OCc3ccccc3)C(=O)O)c(O)c2)cc1` [Example 261, (2S)-2-{[(benzyloxy)carbonyl]amino}-3-({2-hydroxy-4-[2-({[(4-methylbenzyl)-amino]carbonyl}amino)ethoxy]benzoyl}amino)propanoic acid], the IC50 was found to be 20.2 µM. Consider `COc1ccc(CNC(=O)NCCOc2ccc(C(=O)NC[C@H](NC(=O)OCc3ccccc3)C(=O)O)c(O)c2)cc1` [Example 262, (2S)-2-{[(benzyloxy)carbonyl]amino}-3-({2-hydroxy-4-[2-({[(4-methoxybenzyl)-amino]carbonyl}amino)ethoxy]benzoyl}amino)propanoic acid], for which the IC50 was found to be 12.6 µM.
